Organism: Rattus norvegicus
Assay: DrugMatrix - Regimen: Daily Repeat
Assay type: toxicity, organism-based, Sprague-Dawley
Set-up: regimen Daily Repeat, gender Male, age 6-8 weeks
Details: in vivo, po, route oral GAVAGE, vehicle 100 % SALINE; for ABSOLUTE BASOPHIL / ABSOLUTE EOSINOPHIL / ABSOLUTE LYMPHOCYTE / ABSOLUTE MONOCYTE / ABSOLUTE SEGMENTED NEUTROPHIL / BASOPHIL / EOSINOPHIL / ERYTHROCYTE COUNT / HEMATOCRIT / HEMOGLOBIN / LEUKOCYTE COUNT / LYMPHOCYTE / MEAN CORPUSCULAR HEMOGLOBIN / MEAN CORPUSCULAR HEMOGLOBIN CONCENTRATION / MEAN CORPUSCULAR VOLUME / MONOCYTE / NEUTROPHIL / NUCLEATED RED BLOOD CELLS / PLATELET COUNT: tissue Blood; for ALANINE AMINOTRANSFERASE / ALBUMIN / ALKALINE PHOSPHATASE / ASPARTATE AMINOTRANSFERASE / BLOOD UREA NITROGEN / CARBON DIOXIDE / CHLORIDE / CHOLESTEROL / CREATINE PHOSPHOKINASE / CREATININE / GLUCOSE / LACTATE DEHYDROGENASE / LIPASE / PHOSPHORUS / POTASSIUM / SODIUM / TOTAL BILIRUBIN / TOTAL PROTEIN / URIC ACID: tissue Plasma
[1] = 0 mg/kg, 72 h, dose level Control, time 3 day
[2] = 0 mg/kg, 120 h, dose level Control, time 5 day
[3] = 29 mg/kg, 72 h, dose level Low, time 3 day

Cc1ccnc2c1NC(=O)c1cccnc1N2C1CC1 [NEVIRAPINE]
ABSOLUTE BASOPHIL [1]: 0 CELLS/uL
ABSOLUTE EOSINOPHIL [1]: 37 CELLS/uL
ABSOLUTE LYMPHOCYTE [1]: 12359.33 CELLS/uL
ABSOLUTE MONOCYTE [1]: 122.67 CELLS/uL
ABSOLUTE SEGMENTED NEUTROPHIL [1]: 847.67 CELLS/uL
BASOPHIL [1]: 0%
EOSINOPHIL [1]: 0.33%
ERYTHROCYTE COUNT [1]: 5.75 x10E6/uL
HEMATOCRIT [1]: 36.08%
HEMOGLOBIN [1]: 14.07 G/DL
LEUKOCYTE COUNT [1]: 13.37 x10E3/uL
LYMPHOCYTE [1]: 92.5%
MEAN CORPUSCULAR HEMOGLOBIN [1]: 24.47 pg
MEAN CORPUSCULAR HEMOGLOBIN CONCENTRATION [1]: 38.98 G/DL
MEAN CORPUSCULAR VOLUME [1]: 62.78 fL
MONOCYTE [1]: 1%
NEUTROPHIL [1]: 6.17%
NUCLEATED RED BLOOD CELLS [1]: 0.17 /100WBC
PLATELET COUNT [1]: 1202.17 x10E3/uL
ALANINE AMINOTRANSFERASE [1]: 50.67 u/L
ALBUMIN [1]: 4.13 G/DL
ALKALINE PHOSPHATASE [1]: 356.33 u/L
ASPARTATE AMINOTRANSFERASE [1]: 78.17 u/L
BLOOD UREA NITROGEN [1]: 14.17 mg/dL
CARBON DIOXIDE [1]: 31.33 mmol/L
CHLORIDE [1]: 98.5 MEQ/L
CHOLESTEROL [1]: 76.5 mg/dL
CREATINE PHOSPHOKINASE [1]: 248.33 u/L
CREATININE [1]: 0.2 mg/dL
GLUCOSE [1]: 144 mg/dL
LACTATE DEHYDROGENASE [1]: 107 u/L
LIPASE [1]: 9.83 u/L
PHOSPHORUS [1]: 12.8 mg/dL
POTASSIUM [1]: 6.75 MEQ/L
SODIUM [1]: 142 MEQ/L
TOTAL BILIRUBIN [1]: 0.18 mg/dL
TOTAL PROTEIN [1]: 5.98 G/DL
URIC ACID [1]: 1.42 mg/dL
ABSOLUTE BASOPHIL [2]: 0 CELLS/uL
ABSOLUTE EOSINOPHIL [2]: 0 CELLS/uL
ABSOLUTE LYMPHOCYTE [2]: 8681.17 CELLS/uL
ABSOLUTE MONOCYTE [2]: 79.83 CELLS/uL
ABSOLUTE SEGMENTED NEUTROPHIL [2]: 689 CELLS/uL
BASOPHIL [2]: 0%
EOSINOPHIL [2]: 0%
ERYTHROCYTE COUNT [2]: 5.49 x10E6/uL
HEMATOCRIT [2]: 33.55%
HEMOGLOBIN [2]: 13.1 G/DL
LEUKOCYTE COUNT [2]: 9.45 x10E3/uL
LYMPHOCYTE [2]: 92.33%
MEAN CORPUSCULAR HEMOGLOBIN [2]: 23.92 pg
MEAN CORPUSCULAR HEMOGLOBIN CONCENTRATION [2]: 39.07 G/DL
MEAN CORPUSCULAR VOLUME [2]: 61.22 fL
MONOCYTE [2]: 0.67%
NEUTROPHIL [2]: 7%
NUCLEATED RED BLOOD CELLS [2]: 0.17 /100WBC
PLATELET COUNT [2]: 1001.17 x10E3/uL
ALANINE AMINOTRANSFERASE [2]: 49.33 u/L
ALBUMIN [2]: 4.07 G/DL
ALKALINE PHOSPHATASE [2]: 300.33 u/L
ASPARTATE AMINOTRANSFERASE [2]: 83.5 u/L
BLOOD UREA NITROGEN [2]: 16 mg/dL
CARBON DIOXIDE [2]: 29.67 mmol/L
CHLORIDE [2]: 100.5 MEQ/L
CHOLESTEROL [2]: 74.33 mg/dL
CREATINE PHOSPHOKINASE [2]: 489.67 u/L
CREATININE [2]: 0.35 mg/dL
GLUCOSE [2]: 151 mg/dL
LACTATE DEHYDROGENASE [2]: 133.67 u/L
LIPASE [2]: 11.17 u/L
PHOSPHORUS [2]: 10.88 mg/dL
POTASSIUM [2]: 5.5 MEQ/L
SODIUM [2]: 145.7 MEQ/L
TOTAL BILIRUBIN [2]: 0.2 mg/dL
TOTAL PROTEIN [2]: 6.05 G/DL
URIC ACID [2]: 0.68 mg/dL
ABSOLUTE BASOPHIL [3]: 0 CELLS/uL
ABSOLUTE EOSINOPHIL [3]: 29.67 CELLS/uL
ABSOLUTE LYMPHOCYTE [3]: 8345.33 CELLS/uL
ABSOLUTE MONOCYTE [3]: 0 CELLS/uL
ABSOLUTE SEGMENTED NEUTROPHIL [3]: 725 CELLS/uL
BASOPHIL [3]: 0%
EOSINOPHIL [3]: 0.33%
ERYTHROCYTE COUNT [3]: 5.42 x10E6/uL
HEMATOCRIT [3]: 33.9%
HEMOGLOBIN [3]: 13.2 G/DL
LEUKOCYTE COUNT [3]: 9.1 x10E3/uL
LYMPHOCYTE [3]: 91.67%
MEAN CORPUSCULAR HEMOGLOBIN [3]: 24.43 pg
MEAN CORPUSCULAR HEMOGLOBIN CONCENTRATION [3]: 38.93 G/DL
MEAN CORPUSCULAR VOLUME [3]: 62.7 fL
MONOCYTE [3]: 0%
NEUTROPHIL [3]: 8%
NUCLEATED RED BLOOD CELLS [3]: 0 /100WBC
PLATELET COUNT [3]: 673.67 x10E3/uL
ALANINE AMINOTRANSFERASE [3]: 74.33 u/L
ALBUMIN [3]: 4.3 G/DL
ALKALINE PHOSPHATASE [3]: 343.67 u/L
ASPARTATE AMINOTRANSFERASE [3]: 123.67 u/L
BLOOD UREA NITROGEN [3]: 10.33 mg/dL
CARBON DIOXIDE [3]: 28.33 mmol/L
CHOLESTEROL [3]: 68.67 mg/dL
CREATINE PHOSPHOKINASE [3]: 179.33 u/L
CREATININE [3]: 0.43 mg/dL
GLUCOSE [3]: 142.67 mg/dL
LACTATE DEHYDROGENASE [3]: 65.33 u/L
LIPASE [3]: 15.67 u/L
PHOSPHORUS [3]: 10.83 mg/dL
TOTAL BILIRUBIN [3]: 0.13 mg/dL
TOTAL PROTEIN [3]: 5.03 G/DL
URIC ACID [3]: 0.37 mg/dL
ABSOLUTE BASOPHIL (29 mg/kg, 120 h, dose level Low, time 5 day): 0 CELLS/uL

— ChEMBL document CHEMBL3885881, “DrugMatrix”
